From patent US20230310432A1 (JULIUS-MAXIMILIANS-UNIVERSITÄT WÜRZBURG, priority 2017, published 2023)

Columns and labels:
[1] = system: CD8+ T cells expressing a ROR1 CAR with 4-1BB costimulatory domain; assay: Bioluminescence-based cytotoxicity assay, K562/ROR1 target cells; format: cell-based, human
[2] = system: CD8+ T cells expressing a CD19 CAR with 4-1BB costimulation; assay: Cytokine production and secretion (IFN-γ, IL-2 ELISA), co-culture with K562/CD19; format: cell-based, human; settings: 20 h
[3] = system: CD8+ T cells expressing a CD19 CAR with CD28 costimulatory domain; assay: CFSE proliferation assay, co-culture with K562/CD19; format: cell-based, human; settings: dasatinib ≥50 nM; 72 h
Description: (§1) Proliferation: T cells were labeled with 0.2 μM carboxyfluorescein succinimidyl ester (CFSE, Invitrogen), washed and plated in duplicate or triplicate wells with irradiated (80 Gy) stimulator cells at an E:T ratio of 4:1 (K562/ROR1, K562/CD19 or RCH-ACV). No exogenous cytokines were added to the culture medium. After a 72-hour incubation, cells were labeled with anti-CD3 mAb, and analyzed by flow cytometry to assess cell division of T cells.
(§2) CAR-T cells were labeled with CFSE and co-cultured with K562 that the inventors had transduced with either CD19 (for testing CD19 CAR-T cells) or ROR1 (for testing ROR1 CAR-T cells). Dasatinib was added to the assay medium at the beginning of the co-culture assay. Flow cytometric analyses were performed to determine the proliferation of T cells at the end of the co-culture assay.

[4] = system: CD8+ T cells expressing a ROR1 CAR with 4-1BB costimulatory domain; assay: CFSE proliferation assay, co-culture with K562/ROR1; format: cell-based, human; settings: dasatinib ≥50 nM; 72 h
Description: as §1, §2

[5] = system: CD4+ T cells expressing a CD19 CAR with 4-1BB costimulation; assay: Multiplex cytokine analysis, co-culture with K562/CD19; format: cell-based, human; settings: dasatinib ≥25 nM; 20 h; compared to non-dasatinib treated CAR-T cells
Description: A multiplex cytokine analysis was performed in supernatant removed from the co-culture.

[6] = system: CD8+ T cells expressing a SLAMF7-CAR with 4-1BB costimulation; assay: Bioluminescence-based cytotoxicity assay, K562/SLAMF7 target cells; format: cell-based, human
[7] = system: CD19 CAR/4-1BB-T cells; assay: Serum cytokine levels in NSG/Raji xenograft model (multiplex cytokine analysis); format: in vivo, NSG mice
[8] = system: activated CD19 CAR/CD28-T cells; Raji tumor cells; assay: Raji tumor burden by bioluminescence imaging, function ON/OFF/ON (Example 8); format: in vivo, NSG mice
Description: The Institutional Animal Care and Use Committee of UKW approved all mouse experiments. NOD.Cg-Prkdc^scidIl2rg^tm1wjl/SzJ (NSG) mice (female, 6-8 week old) were purchased from Charles River (Sulzfeld, Germany). Mice were inoculated with 1×10^6 Raji/ffluc_GFP tumor cells via tail vein injection (i.v.). Mice were treated with 5×10^6 CAR-modified or control untransduced T-cells (CD4:CD8 ratio=1:1) via tail vein injection (i.v.). […] Tumor burden and distribution was analyzed by serial bioluminescence imaging on an IVIS Lumina imager (Perkin Elmer, Baesweiler, Germany): mice received i.p. injections of 0.3 mg/g luciferin and images were acquired 10 minutes after luciferin injection in small binning mode at an acquisition time of 1 s to 1 min to obtain unsaturated images. Data were analyzed using LivingImage Software (Caliper) and the average radiance (or photon flux) analyzed in regions of interest that encompassed the entire body of each individual mouse. Mice were sacrificed at the end of the experiment and human T cells in bone marrow, peripheral blood and spleen were analyzed by flow cytometry. The presence of (human) cytokines in serum was measured using multiplex cytokine analysis. […]
Raji tumor burden was determined by bioluminescence imaging on day 7, day 10, day 12, day 14, day 17, and subsequently, once a week.

[9] = system: CD19 CAR/4-1BB-T cells; Raji tumor cells; assay: Flow cytometry of tumor cells and human CAR-T cells in bone marrow and spleen, intermittent dasatinib; format: in vivo, NSG mice; settings: day 15
Description: The Institutional Animal Care and Use Committee of UKW approved all mouse experiments. NOD.Cg-Prkdc^scidIl2rg^tm1wjl/SzJ (NSG) mice (female, 6-8 week old) were purchased from Charles River (Sulzfeld, Germany). Mice were inoculated with 1×10^6 Raji/ffluc_GFP tumor cells via tail vein injection (i.v.). Mice were treated with 5×10^6 CAR-modified or control untransduced T-cells (CD4:CD8 ratio=1:1) via tail vein injection (i.v.). […] Tumor burden and distribution was analyzed by serial bioluminescence imaging on an IVIS Lumina imager (Perkin Elmer, Baesweiler, Germany): mice received i.p. injections of 0.3 mg/g luciferin and images were acquired 10 minutes after luciferin injection in small binning mode at an acquisition time of 1 s to 1 min to obtain unsaturated images. Data were analyzed using LivingImage Software (Caliper) and the average radiance (or photon flux) analyzed in regions of interest that encompassed the entire body of each individual mouse. Mice were sacrificed at the end of the experiment and human T cells in bone marrow, peripheral blood and spleen were analyzed by flow cytometry. The presence of (human) cytokines in serum was measured using multiplex cytokine analysis.
In brief, cohorts of 1-12 mice were inoculated with 1×10^6 firefly-luciferase_GFP-transduced Raji tumor cells on day 0. […] Serial bioluminescence imaging was performed to determine tumor burden on day 7, 9 and 15.
On day 15, mice were sacrificed and peripheral blood (PB), bone marrow (BM) and spleen (SP) analyzed for the presence of human CAR-T cells by flow cytometry.

[10] = system: CAR-T cells co-expressing the iCasp suicide gene; assay: Elimination of iCasp+ T cells; format: cell-based, human; settings: 100 nM dasatinib and dimerizer (dasatinib+/dimerizer+); 24 hours
Description: After 24 hours, cells were labeled with anti-CD3 mAB and analyzed by flow cytometry for the presence of iCasp+ T cells.
After 24 hours, cells were labeled with anti-CD3 mAB and analyzed by flow cytometry for the presence of iCasp^+ T cells.

[11] = dasatinib 100 nM added 2 hours after the start of the co-culture

Cc1nc(Nc2ncc(C(=O)Nc3c(C)cccc3Cl)s2)cc(N2CCN(CCO)CC2)n1 [dasatinib]
specific lysis of target cells ([1]; dasatinib 25 nM, up to t=5 h, 73% by non-dasatinib treated): less than 2%
specific lysis of target cells ([1]; dasatinib 50 nM, any given timepoint, 94% by non-dasatinib treated at t=10 h): less than 2%
residual IFN-γ production (untreated CAR-T cells=100%) [2, 11]: 51%
residual IL-2 production (untreated CAR-T cells=100%) [2, 11]: 28%
residual specific IFN-γ production compared to non-dasatinib treated CAR-T cells ([2]; dasatinib ≥6.25 nM): less than 45%
residual specific IL-2 production compared to non-dasatinib treated CAR-T cells ([2]; dasatinib ≥6.25 nM): less than 60%
residual specific IL-2 production compared to non-dasatinib treated CAR-T cells ([2]; dasatinib ≥50 nM): less than 1%
residual proliferation compared to non-dasatinib treated CAR-T cells [3]: less than 7%
residual proliferation compared to non-dasatinib treated CAR-T cells [4]: less than 7%
reduction of production and secretion of GM-CSF, IFN-γ, IL-2, IL-4, IL-5, IL-6, IL-8 [5]: > 95%
specific lysis of target cells ([6]; dasatinib 20 nM, t=6 h, 63% by non-dasatinib treated): 21%
specific lysis of target cells ([6]; dasatinib 20 nM, t=12 h, 83% by non-dasatinib treated): 35%
specific lysis of target cells ([6]; dasatinib ≥40 nM, t=12 h, 83% by non-dasatinib treated): less than 10%
specific lysis of target cells ([6]; dasatinib ≥40 nM, up to t=6 h): less than 5.5%
serum level of GM-CSF ([7]; day +1, CAR-T cells and dasatinib (CAR/+)): 6.4 pg/mL
serum level of IFN-γ ([7]; day +1, CAR/+): 13.4 pg/mL
serum level of IL-5 ([7]; day +1, CAR/+): 21.4 pg/mL
serum level of TNF-α ([7]; day +1, CAR/+): 0.04 pg/mL
serum level of GM-CSF ([7]; day +3, dasatinib discontinued): 45.8 pg/mL
serum level of IFN-γ ([7]; day +3, dasatinib discontinued): 411.8 pg/mL
serum level of IL-2 ([7]; day +3, dasatinib discontinued): 0.2 pg/mL
serum level of IL-5 ([7]; day +3, dasatinib discontinued): 331.2 pg/mL
serum level of IL-6 ([7]; day +3, dasatinib discontinued): 0.9 pg/mL
serum level of TNF-α ([7]; day +3, dasatinib discontinued): 0.9 pg/mL
mean reduction of BLI ([8]; between day 12 and 14, previously treated with dasatinib): 71%
median BLI ([8]; day 17, CAR/Dasa, 966 CAR/vehicle, 839 CAR alone): 507
percentage of human CAR-T cells, bone marrow ([9]; intermittent dasatinib, 1.9% without): 7.3%
percentage of human CAR-T cells, spleen ([9]; intermittent dasatinib, 3.2% without): 6.9%
remaining tumor burden, of all living cells in the bone marrow ([9]; one exemplary mouse, CAR-T cells and intermittent dasatinib, 58.8% CAR-T cells only): 0.22%
percentage of iCasp+ cells [10]: 36%
